Measured values reported in patent publication US9556179B2 (BRISTOL-MYERS SQUIBB COMPANY, priority 2012, dated 2017).

How the values were obtained:
CK1δ = CK1δ (Homo sapiens (Human), UniProt P48730); test: CK1δ kinase assay (Caliper LABCHIP electrophoretic separation of fluoresceinated peptide substrate and product); type: biochemical; conditions: 200 pM enzyme, 50 μM ATP, 22 hours at room temperature
In short: (§1)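 Reactions ran 22 hours at room temperature and were stopped with EDTA. Phosphorylated product and unphosphorylated substrate were then separated electrophoretically. Compounds were tested at eleven concentrations, and IC50 values came from non-linear regression.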

CK1ε = CK1ε (Homo sapiens (Human), UniProt P49674); test: CK1ε kinase assay (Caliper LABCHIP electrophoretic separation of fluoresceinated peptide substrate and product); type: biochemical; conditions: 200 pM enzyme, 50 μM ATP, 22 hours at room temperature
Chain of CK1ε (P49674 whole entry): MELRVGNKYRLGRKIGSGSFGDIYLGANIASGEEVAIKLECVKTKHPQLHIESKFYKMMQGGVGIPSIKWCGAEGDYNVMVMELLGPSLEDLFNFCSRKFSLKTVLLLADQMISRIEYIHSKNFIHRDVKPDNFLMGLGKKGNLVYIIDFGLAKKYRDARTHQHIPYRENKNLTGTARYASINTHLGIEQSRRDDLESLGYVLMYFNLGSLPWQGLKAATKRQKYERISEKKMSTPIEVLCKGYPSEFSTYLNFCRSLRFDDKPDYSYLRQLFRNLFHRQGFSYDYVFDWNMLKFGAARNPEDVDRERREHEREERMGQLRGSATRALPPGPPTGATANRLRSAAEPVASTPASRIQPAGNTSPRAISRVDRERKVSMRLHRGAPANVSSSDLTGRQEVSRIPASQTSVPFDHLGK
In short: as §1

Chain of CK1δ (P48730 whole entry): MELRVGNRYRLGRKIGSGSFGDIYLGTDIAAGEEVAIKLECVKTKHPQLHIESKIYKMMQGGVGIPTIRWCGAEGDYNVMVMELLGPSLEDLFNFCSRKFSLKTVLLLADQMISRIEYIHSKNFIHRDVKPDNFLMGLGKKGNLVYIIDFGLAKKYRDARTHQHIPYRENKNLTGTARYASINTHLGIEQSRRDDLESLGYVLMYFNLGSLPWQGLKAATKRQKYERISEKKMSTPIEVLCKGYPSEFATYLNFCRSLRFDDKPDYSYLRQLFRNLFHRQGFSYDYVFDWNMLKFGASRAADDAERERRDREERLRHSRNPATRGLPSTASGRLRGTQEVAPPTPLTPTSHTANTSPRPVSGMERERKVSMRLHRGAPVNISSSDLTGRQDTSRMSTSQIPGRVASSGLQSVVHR

| IC50 (CK1δ) [nM] | IC50 (CK1ε) [nM] | SMILES |
| --- | --- | --- |
| 0.4 | 3.9 | O=C(Nc1cn2nc(-c3c(-c4ccc(F)cc4)nc4n3CCN(C(=O)NC3CC3)C4)ccc2n1)c1ccnc(F)c1 [Compound 483, N-Cyclopropyl-3-(2-(2-fluoroisonicotinamido)imidazo[1,2-b]pyridazin-6-yl)-2-(4-fluorophenyl)-5,6-dihydroimidazo[1,2-a]pyrazine-7(8H)-carboxamide] |
| 0.251 | 1.8 | CC(C)OC(=O)N1CCC(n2cnc(-c3ccc(F)cc3)c2-c2ccc3nc(NC(=O)c4ccnc(F)c4)cn3n2)CC1 [Compound 76, isopropyl 4-(5-(2-(2-fluoroisonicotinamido)imidazo[1,2-b]pyridazin-6-yl)-4-(4-fluorophenyl)-1H-imidazol-1-yl)piperidine-1-carboxylate] |
| 1.97 | 20.7 | O=C(Nc1cn2nc(-c3c(-c4ccc(F)cc4)nc(C4CC4)n3C3CCN(Cc4ccncc4)CC3)ccc2n1)c1ccnc(F)c1 [Compound 131, N-(6-(2-cyclopropyl-4-(4-fluorophenyl)-1-(1-(pyridin-4-ylmethyl)piperidin-4-yl)-1H-imidazol-5-yl)imidazo [1,2-b]pyridazin-2-yl)-2-fluoroisonicotinamide] |
| 0.5 | 3.8 | CC(C)C(=O)N1CCn2c(nc(-c3ccc(F)cc3)c2-c2ccc3nc(NC(=O)c4ccnc(F)c4)cn3n2)C1 [Compound 463, 2-Fluoro-N-(6-(2-(4-fluorophenyl)-7-isobutyryl-5,6,7,8-tetrahydroimidazo[1,2-a]pyrazin-3-yl)imidazo[1,2-b]pyridazin-2-yl)isonicotinamide] |
| 0.264 | 1.17 | O=C(Nc1cn2nc(-c3c(-c4ccc(F)cc4)ncn3C3CCN(C(=O)CC(F)(F)F)CC3)ccc2n1)c1ccncc1 [Compound 6, N-(6-(4-(4-fluorophenyl)-1-(1-(3,3,3-trifluoropropanoyl)piperidin-4-yl)-1H-imidazol-5-yl)imidazo[1,2-b]pyridazin-2-yl)isonicotinamide] |
| 0.4 | 2 | O=C(Nc1cn2nc(-c3c(-c4ccc(F)cc4)nc4n3CCC4)ccc2n1)c1ccnc(F)c1 [Compound 436, 2-Fluoro-N-(6-(2-(4-fluorophenyl)-6,7-dihydro-5H-pyrrolo[1,2-a]imidazol-3-yl)imidazo[1,2-b]pyridazin-2-yl)isonicotinamide] |
| 0.4 | 2.5 | O=C(Nc1cn2nc(-c3c(-c4ccc(F)cc4)nc4n3CCCC4)ccc2n1)c1cccc(-c2cccnc2)c1 [Compound 442, N-(6-(2-(4-Fluorophenyl)-5,6,7,8-tetrahydroimidazo[1,2-a]pyridin-3-yl)imidazo[1,2-b]pyridazin-2-yl)-3-(pyridin-3-yl)benzamide] |
| 0.513 | 1.91 | Cc1nc(-c2ccc(F)cc2)c(-c2ccc3nc(NC(=O)c4ccc(C#N)cc4)cn3n2)n1C [Compound 356, 4-cyano-N-(6-(4-(4-fluoro-phenyl)-1,2-dimethyl-1H-imidazol-5-yl)imidazo[1,2-b]pyridazin-2-yl)benzamide] |
| 0.378 | 1.9 | O=C(Nc1cn2nc(-c3c(-c4ccc(F)cc4)ncn3C3CCN(CCCF)CC3)ccc2n1)c1ccnc(F)c1 [Compound 33, 2-fluoro-N-(6-(4-(4-fluorophenyl)-1-(1-(3-fluoropropyl)piperidin-4-yl)-1H-imidazol-5-yl)imidazo[1,2-b]pyridazin-2-yl)isonicotinamide] |
| 17.6 | 75.1 | Cc1onc(-c2ccccc2)c1C(=O)Nc1cn2nc(-c3c(-c4ccc(F)cc4)nc4ccccn34)ccc2n1 [Compound 210, N-(6-(2-(4-fluorophenyl)imidazo[1,2-a]pyridin-3-yl)imidazo[1,2-b]pyridazin-2-yl)-5-methyl-3-phenylisoxazole-4-carboxamide] |
| 0.172 | 0.676 | N#CC1(C(=O)N2CCC(n3cnc(-c4ccc(F)cc4)c3-c3ccc4nc(NC(=O)c5ccnc(F)c5)cn4n3)CC2)CC1 [Compound 71, N-(6-(1-(1-(1-cyanocyclopropanecarbonyl)piperidin-4-yl)-4-(4-fluorophenyl)-1H-imidazol-5-yl)imidazo[1,2-b]pyridazin-2-yl)-2-fluoroisonicotinamide] |
| 0.473 | 4.76 | Cc1nc(-c2ccc(F)cc2)c(-c2ccc3nc(NC(=O)c4ccc(O)nc4)cn3n2)n1C [Compound 322, N-(6-(4-(4-fluorophenyl)-1,2-dimethyl-1H-imidazol-5-yl)imidazo[1,2-b]pyridazin-2-yl)-6-hydroxynicotinamide] |
| 0.292 | 0.305 | O=C(Nc1cn2nc(-c3c(-c4ccc(F)cc4)ncn3C3CCN(C[C@H](O)C(F)(F)F)CC3)ccc2n1)c1ccnc(F)c1 [Compound 38, (S)-2-fluoro-N-(6-(4-(4-fluorophenyl)-1-(1-(3,3,3-trifluoro-2-hydroxypropyl)piperidin-4-yl)-1H-imidazol-5-yl)imidazo[1,2-b]pyridazin-2-yl)isonicotinamide] |
| 1.56 | 11 | O=C(Nc1cn2nc(-c3c(-c4ccc(F)cc4)nc(C4CC4)n3C3CCN(Cc4ccon4)CC3)ccc2n1)c1cccc(-c2cccnc2)c1 [Compound 138, N-(6-(2-cyclopropyl-4-(4-fluorophenyl)-1-(1-(isoxazol-3-ylmethyl)piperidin-4-yl)-1H-imidazol-5-yl)imidazo[1,2-b]pyridazin-2-yl)-3-(pyridin-3-yl)benzamide] |
| 1.91 | 16.3 | Cc1nc(-c2ccc(F)cc2)c(-c2ccc3nc(NC(=O)c4ccon4)cn3n2)n1C [Compound 375, N-(6-(4-(4-fluorophenyl)-1,2-dimethyl-1H-imidazol-5-yl)imidazo[1,2-b]pyridazin-2-yl)-3-isoxazolecarboxamide] |
| 0.2 | 1.5 | O=C(Nc1cn2nc(-c3c(-c4ccc(F)cc4)nc4n3CCN(C(=O)C3CC3(F)F)C4)ccc2n1)c1ccnc(F)c1 (stereo not drawn) [Compound 466, N-(6-(7-(2,2-Difluorocyclopropanecarbonyl)-2-(4-fluorophenyl)-5,6,7,8-tetrahydroimidazo[1,2-a]pyrazin-3-yl)imidazo[1,2-b]pyridazin-2-yl)-2-fluoroisonicotinamide] |
| 5.46 | 10.6 | Cc1nc(-c2ccc(F)cc2)c(-c2ccc3nc(NC(=O)c4ccc(CN5CCCC5)cc4)cn3n2)n1C [Compound 395, N-(6-(4-(4-fluorophenyl)-1,2-dimethyl-1H-imidazol-5-yl)imidazo[1,2-b]pyridazin-2-yl)-4-(pyrrolidin-1-ylmethyl) benzamide] |
| 0.624 | 3.91 | O=C(Nc1cn2nc(-c3c(-c4ccc(F)cc4)ncn3C3CCN(C(=O)c4cnon4)CC3)ccc2n1)c1ccnc(F)c1 [Compound 14, N-(6-(1-(1-(1,2,5-oxadiazole-3-carbonyl)piperidin-4-yl)-4-(4-fluorophenyl)-1H-imidazol-5-yl)imidazo[1,2-b]pyridazin-2-yl)-2-fuoroisonicotinamide] |
| 2.99 | 8.98 | CC(C)(C)c1cc(C(=O)Nc2cn3nc(-c4c(-c5ccc(F)cc5)nc5ccccn45)ccc3n2)ccn1 [Compound 197, 2-(tert-butyl)-N-(6-(2-(4-fluorophenyl)imidazo[1,2-a]pyridin-3-yl)imidazo[1,2-b]pyridazin-2-yl)isonicotinamide] |
| 0.034 | 3.81 | O=C(Nc1cn2nc(-c3c(-c4ccc(F)cc4)ncn3C3CN(CCO)C3)ccc2n1)c1ccnc(F)c1 [Compound 150, 2-fluoro-N-(6-(4-(4-fluorophenyl)-1-(1-(2-hydroxyethyl)azetidin-3-yl)-1H-imidazol-5-yl)imidazo[1,2-b]pyridazin-2-yl)isonicotinamide] |
| 6.34 | 17.3 | Cc1nc(-c2ccc(F)cc2)c(-c2ccc3nc(NC(=O)c4ncccn4)cn3n2)n1C [Compound 383, N-(6-(4-(4-fluorophenyl)-1,2-dimethyl-1H-imidazol-5-yl)imidazo[1,2-b]pyridazin-2-yl)pyrimidine-2-carboxamide] |
| 8.51 | 29.1 | Cc1nc(-c2ccc(F)cc2)c(-c2ccc3nc(NC(=O)c4ccncn4)cn3n2)n1C [Compound 384, N-(6-(4-(4-fluorophenyl)-1,2-dimethyl-1H-imidazol-5-yl)imidazo[1,2-b]pyridazin-2-yl)pyrimidine-4-carboxamide] |
| 1.15 | 1.22 | Cc1nc(-c2ccncc2)sc1C(=O)Nc1cn2nc(-c3c(-c4ccc(F)cc4)nc4ccccn34)ccc2n1 [Compound 219, N-(6-(2-(4-fluorophenyl)imidazo[1,2-a]pyridin-3-yl)imidazo[1,2-b]pyridazin-2-yl)-4-methyl-2-(pyridin-4-yl) thiazole-5-carboxamide] |
| 0.463 | 7.47 | Cc1cc(C)c(-c2cccnc2)cc1C(=O)Nc1cn2nc(-c3c(-c4ccc(F)cc4)nc(C)n3C)ccc2n1 [Compound 402, N-(6-(4-(4-Fluorophenyl)-1,2-dimethyl-1H-imidazol-5-yl)imidazo[1,2-b]pyridazin-2-yl)-2,4-dimethyl-5-(pyridin-3-yl)benzamide] |
| 0.899 | 7.43 | O=C(Nc1cn2nc(-c3c(-c4cccc(F)c4)ncn3CC(F)F)ccc2n1)c1ccnc(F)c1 [Compound 245, N-(6-(1-(2,2-difluoroethyl)-4-(3-fluorophenyl)-1H-imidazol-5-yl)imidazo[1,2-b]pyridazin-2-yl)-2-fluoroisonicotinamide] |
| 0.322 | 1.54 | CCn1cnc(-c2ccc(F)cc2)c1-c1ccc2nc(NC(=O)c3ccnc(F)c3)cn2n1 [Compound 232, N-(6-(1-ethyl-4-(4-fluorophenyl)-1H-imidazol-5-yl)imidazo[1,2-b]pyridazin-2-yl)-2-fluoroiso-nicotinamide] |
| 0.311 | 2.42 | O=C(Nc1cn2nc(-c3c(-c4ccc(F)cc4)ncn3CCN3CCOCC3)ccc2n1)c1cc(F)nc(F)c1 [Compound 162, 2,6-difluoro-N-(6-(4-(4-fluorophenyl)-1-(2-morpholinoethyl)-1H-imidazol-5-yl)imidazo[1,2-b]pyridazin-2-yl)isonicotinamide] |
